# Laboratory results taken from publication PMC12333940, “A prometabolite strategy inhibits cardiometabolic disease in an ApoE^–/– murine model of atherosclerosis” (JCI Insight, 2025).
# Values joined by “and” are separate entries in the source; they are usually repeats but may differ in a detail not shown here. Identical values can stand only once.
# What was measured:
# [1] = system: ApoE^–/– mice on an HFD; assay: Oil Red O staining of aortic root plaque; type: in vivo, mouse; set-up: ORO Quantification ORO+ Heart: unit not given here; conditions: individual mice, experiments 1 and 2
# Description: (§1) For 6 weeks, mice were freely administered water, water containing 150 mM SerBut, or water containing an equimolar amount of NaBut. SerBut water was pH adjusted using 10 M NaOH to a final pH of 7.4. […] In concert, mice were fed an HFD with 42% from fat and 0.2% total cholesterol (Envigo, TD-88137) ad libitum. After 6 weeks, mice were euthanized. The lMLNs, ILNs, spleen, heart, and aorta were harvested and processed for flow cytometry analysis ([67]). The liver was harvested and part was homogenized in tissue protein extraction reagent buffer (Invitrogen, 78510) supplemented with protease inhibitor mini tablets (Thermo Fisher Scientific, PIA32955) for Western blotting and qPCR. The remaining liver was fixed with 4% paraformaldehyde and embedded in paraffin for histological analysis.
# Hearts were fixed in 4% paraformaldehyde for 24 hours and cryopreserved with sucrose (15% sucrose for 24 hours, 30% sucrose for 24 hours, 1:1 30% sucrose and OCT) before being embedded in OCT (Thermo Fisher Scientific). Frozen embedded samples were sectioned at 8 μm until all 3 leaflets were visible. Aortic root sections were brought to room temperature and rehydrated with PBS. Staining solution was freshly prepared by mixing 3:2 Oil Red O (0.5% in isopropanol, Sigma Aldrich) to water. The solution was filtered through a 0.22 μm PES syringe filter (Millipore) and pipetted onto sections. After 15 minutes in a sealed dark chamber, sections were washed 3 times with water and imaged. Images were analyzed using QuPath (v0.5.0) (https://qupath.github.io). Each leaflet was circled broadly to include the plaque and then subsequently trained on the QuPath pixel classifier using the software’s artificial neural network. Training images were then tested and validated to identify the plaques to calculate their area and exclude non-plaque structures in the image. Plaque sizes were subsequently averaged and used to determine percentage Oil Red O–positive plaque area in the leaflet.
# [2] = system: ApoE^–/– mice on an HFD; assay: Histological grading and scoring of livers; type: in vivo, mouse; set-up: key to Liver Grading and Staging: Lobular inflammation (CD3+): one focus in which more than 10 periductal CD3^+ lymphocytes are found in an ×200 field; 2 to 5 instances of more than 10 periductal CD3^+ immune cells in an ×200 field; 3: Any sample exceeding this threshold
# Description: as §1
# Sections (8 μm thick) were stained. Digital image files were created with an Olympus VS200 Research Slide Scanner (Olympus/Evident) with a Hamamatsu ORca-Fusion camera (Hamamatsu Photonics) at ×40 magnification. Individual images were created with the OlyVIA Viewer software (Olympus/Evident). Scoring and grading was performed by a pathologist as previously described ([48]). Immunohistochemistry grading was informed by age-matched WT controls. In age-matched WT controls, CD3^+ immune cells were seen scattered without distinct aggregate formation nor associated tissue reaction. In an ×400 field, we observed up to 25 CD3^+ immune cells scattered in an even distribution, with rare events of up to 10 periductal CD3^+ immune cells but with no associated ductal or parenchymal reaction. […] Furthermore, a score of 2 corresponds to 2 to 5 instances of more than 10 periductal CD3^+ immune cells in an ×200 field. Any sample exceeding this threshold was scored a 3.
# [3] = system: ApoE^–/– mice on an HFD; assay: qPCR of liver lipid metabolism genes; type: in vivo, mouse; set-up: srebf1 / srebf2 / fasn / acly / scd1 / acaca / cpt1a: scale not given here; conditions: qPCR; individual mice
# Description: We then asked whether SerBut’s effects on disease pathology and inflammation may be partially mediated by changes in lipid metabolism by measuring lipogenic and lipid oxidation gene expression by qPCR after treatment for 6 weeks (Supplemental Figure 10, F–L).
# as §1
# [4] = system: RAW 264.7 macrophages; assay: LEGENDPlex cytokines in supernatant of LPS-stimulated RAW 264.7; type: cell-based; set-up: TNFa (Legendplex) / MCP-1 (Legendplex) / IL-10 (Legendplex) / IL-6 (Legendplex): unit not given here
# Description: RAW 264.7 (ATCC, TIB-71) macrophages were cultured at 37°C and 5% CO2 in DMEM (Gibco) supplemented with 1 mM HEPES, 1 mM sodium pyruvate, 10% FBS, and penicillin/streptomycin. Cells were plated in round-bottom 96-well plates at 100,000 cells per well and incubated with different concentrations of either NaBut or SerBut (0.15–12 mM) for 24 hours. Cells were then rinsed with PBS and then stimulated with 200 ng/mL LPS in media for 6 hours. The cell culture supernatant was collected and analyzed by LEGENDPlex to analyze the concentrations of cytokines (BioLegend). Cell phenotype was analyzed using flow cytometry (Cytek Aurora).
# [5] = system: ApoE^–/– mice on an HFD; assay: Flow cytometry of blood, lymph nodes and spleen; type: in vivo, mouse; set-up: Treg / Th17 / F480+CD11b+ Macrophages / iNOS+ Macs / Arg1+ Macs: unit not given here
# Description: SerBut water was pH adjusted using 10 M NaOH to a final pH of 7.4. […] After 6 weeks, mice were euthanized. The lMLNs, ILNs, spleen, heart, and aorta were harvested and processed for flow cytometry analysis ([67]). […] The remaining liver was fixed with 4% paraformaldehyde and embedded in paraffin for histological analysis.
# Flow cytometry was performed using a BD LSRFortessa or a Cytek Aurora full-spectrum cytometer.
# [6] = liver, individual mice, 150 mM ad libitum for 6 weeks, HFD
# [7] = Inguinal Lymph Node Flow, individual mice
# [8] = Mesenteric Lymph Node Flow, individual mice
compound,measurement,setting,value
"CCCC(=O)[O-].[Na+] [NaBut, sodium butyrate, reference compound]",ORO Quantification ORO+ Heart,[1],19.7151 and 33.3577 and 43.2157 and 32.1745 and 46.8072 and 36.2576 and 32.4176 and 40.5144 and 34.2074 and 37.9228
same,"CD3^+ immune cell infiltration into the livers, lobular inflammation",[2]; 6 weeks,Neither SerBut nor NaBut significantly reduced
same,hepatocellular nuclear hypertrophy,[2]; 6 weeks,suppressed
same,"Liver Grading and Staging: Balooning Grade, Hypertrophy",[2]; [6],2 and 1
same,Liver Grading and Staging: Lobular inflammation (CD3+),[2]; [6],1 and 2 and 3 and 0
same,"Liver Grading and Staging: Steatosis Grade, Macro fat",[2]; [6],1 and 2
same,"NAS score (steatosis, inflammation, Ballooning)",[2]; [6],4 and 5 and 6 and 3 and 2
same,acaca,[3],0.754 and 1.434 and 0.565 and 0.348
same,acly,[3],1.514 and 3.195 and 3.181 and 0.636
same,cpt1a,[3],0.594 and 0.912 and 0.54 and 0.529
same,fasn,[3],1.21 and 3.882 and 0.92 and 0.454
same,scd1,[3],1.215 and 2.79 and 1.889 and 0.696
same,srebf1,[3],0.816 and 1.204 and 0.406 and 0.79
same,srebf2,[3],0.731 and 1.208 and 0.837 and 0.717
same,IL-10 (Legendplex),"[4]; 0.15 mM 24 h, then LPS 6 h",8.317 and 9.29 and 13.129 and 8.37
same,MCP-1 (Legendplex),"[4]; 0.15 mM 24 h, then LPS 6 h",1660.24 and 2264.24 and 1687.05 and 2929.5 and 2357.33 and 2465.59
same,TNFa (Legendplex),"[4]; 0.15 mM 24 h, then LPS 6 h",3467.9 and 2909.16 and 2378.78 and 3607.94 and 2472.11 and 3683.23
same,MCP-1 (Legendplex),"[4]; 0.45 mM 24 h, then LPS 6 h",2112.3 and 1670.81 and 2406.34 and 3206.1 and 2298.22 and 2148.28
same,TNFa (Legendplex),"[4]; 0.45 mM 24 h, then LPS 6 h",3244.2 and 3100.16 and 2160.11 and 2490.85 and 3404.75 and 4226.6
same,IL-6 (Legendplex),"[4]; 1.3 mM 24 h, then LPS 6 h",176.681 and 160.514 and 142.105 and 263.619 and 136.873 and 198.799
same,IL-10 (Legendplex),"[4]; 1.3 mM 24 h, then LPS 6 h",98.389 and 140.989 and 108.157 and 179.138 and 132.561 and 143.069
same,MCP-1 (Legendplex),"[4]; 1.3 mM 24 h, then LPS 6 h",906.304 and 776.372 and 770.115 and 1009 and 667.135 and 799.178
same,TNFa (Legendplex),"[4]; 1.3 mM 24 h, then LPS 6 h",1902.56 and 1870.65 and 1906.93 and 1713.88 and 1376.2 and 1809.49
same,IL-10,[4]; compared with LPS-stimulated controls,significantly increased
same,Arg1+ Macs,[5]; [7],1.5 and 2.34 and 2.81 and 2.38
same,F480+CD11b+ Macrophages,[5]; [7],0.62 and 0.34 and 0.21 and 0.27
same,Th17,[5]; [7],4.92 and 5.5 and 5.4 and 13 and 8.24 and 3.69 and 4.14 and 8.43 and 4.57 and 3.89
same,Th17/Treg,[5]; [7],0.4278 and 0.4365 and 0.4463 and 1.161 and 0.7423 and 0.2976 and 0.345 and 0.4153 and 0.3288 and 0.2701
same,Treg,[5]; [7],11.5 and 12.6 and 12.1 and 11.2 and 11.1 and 12.4 and 12 and 20.3 and 13.9 and 14.4
same,iNOS+ Macs,[5]; [7],2.2 and 5.7 and 2.33 and 5.26
same,Arg1+ Macs,[5]; [8],1.44 and 1.98 and 1.72 and 1.71
same,F480+CD11b+ Macrophages,[5]; [8],11.6 and 5.7 and 6.38 and 10.4
same,Th17,[5]; [8],11.7 and 14.4 and 12.2 and 12.1 and 11.3 and 18.4 and 15.3
same,Th17/Treg,[5]; [8],1.054 and 1.385 and 0.8652 and 1.008 and 0.8968 and 1.108 and 0.8895
same,Treg,[5]; [8],11.1 and 10.4 and 14.1 and 12 and 12.6 and 16.6 and 17.2
same,iNOS+ Macs,[5]; [8],2.42 and 0.43 and 0.69 and 0.94
same,Th17,"[5]; Spleen Flow, individual mice",1.11 and 0.85 and 1.17 and 1.19 and 1.09 and 1.43 and 1.41 and 1.08 and 1.22 and 0.97
same,Th17/Treg,"[5]; Spleen Flow, individual mice",0.1535 and 0.1111 and 0.1425 and 0.1357 and 0.131 and 0.1783 and 0.1653 and 0.135 and 0.1432 and 0.1325
same,Treg,"[5]; Spleen Flow, individual mice",7.23 and 7.65 and 8.21 and 8.77 and 8.32 and 8.02 and 8.53 and 8 and 8.52 and 7.32
same,Blood Neutrophils: CD11b+Ly6G+ %CD45,"[5]; blood, individual mice",7.65 %CD45 and 9.07 %CD45 and 17.4 %CD45 and 8.36 %CD45 and 14.3 %CD45 and 19.3 %CD45 and 20.8 %CD45 and 17.3 %CD45 and 19.5 %CD45 and 14.8 %CD45 and 22.8 %CD45 and 4.26 %CD45 and 16.8 %CD45
same,Th17/Treg cell ratio,[5]; spleen,lower Th17/Treg cell ratio
